Laboratory results from patent US7332480B2, “Compositions for the regulation of cytokine activity” (Yeda Research and Development Co. Ltd., priority 1992, dated 2008).

Key:
IDDM of NOD mice = assay: Insulin dependent diabetes mellitus (IDDM) of NOD mice; format: in vivo; conditions: H-9392 30 ng, glucosamine 10,000 ng; all the control mice had died (FIG. 41A)
skin graft rejection = assay: Skin allograft rejection in mice; format: in vivo, BALB/c mice; conditions: 300 ng/mouse s.c. one day before grafting and weekly thereafter
Method: The effect of H-9392 was also tested in skin graft rejection experiments in mice. In particular, skin grafts from C57BL/6 donor mice (H-2^b) were applied to recipient BALB/c mice (H-2^d) according to the method of Baharav, E. et al. J. Immunol. Methods (1986) 90:143-144. The number of days to rejection was measured by the sloughing of the graft. The number of days to rejection was determined for a control group (injected with saline only, 0.1 ml), and test groups that received 3 ng or 300 ng of H-9392 by subcutaneous injection one day before grafting and weekly thereafter. The results, which are graphically represented in FIGS. 40 and 40A, reveal that the 3 ng/mouse dose delayed the level of skin graft rejection at 50% by 5 days!

[1] = system: experimental allergic asthma; assay: Experimental allergic bronchial asthma in rats; format: in vivo, Brown Norway rats; conditions: 30 ng s.c. on day 30, challenge on day 35; saline animals Grade 3 or 4
Method: Experimental allergic bronchial asthma is an immediate type hypersensitivity reaction in rats which have been immunized and then rechallenged by inhalation of the priming antigen in a aerosolized solution. (Edelman, et al., Am. Rev. Resp. Dis. (1988) 137:1033-37). The etiology and pathophysiology of this experimental disease closely parallel the naturally occurring human counterpart. […] V.), on day zero. Subsequent challenges consisted of a 5 minute period of inhalation of OVA (1 mg/ml solution) aerosolized in a Devilbiss Nebulizer operated at an airflow of 6 L/min. Respiratory Distress (RD) responses were scored as Grade 0, no signs of distress; Grade 1, tachypnea; Grade 2, moderate labored breathing; Grade 3 severe labored breathing with mouth open; Grade 4, loss of consciousness and muscular tone. Sixteen days following primary immunization all animals were exposed to an initial aerosolized challenge to establish the positive control. The animals were coded so that the observer was ignorant of the subject animal's history. […] On day thirty, the animals were divided into 2 groups and given either saline (control Group A) or 30 ng of substance H-9392, s.c., (Group B) and challenged on day 35 as above.

adjuvant arthritis = assay: Adjuvant arthritis (AA) in rats; format: in vivo, Lewis rats
[2] = system: secretion of active TNF-α by activated human CD4+ T cells; assay: Bioassay of TNF-α activity using human CD4+ T cells derived from PBLs (human PBL bioassay); format: cell-based; conditions: Table XXIII; conc range of 1 μg/ml-0.01 pg/ml; inconsistent = same result not obtained for all three bioassays
Excerpt: Non adherent cells were eluted and washed.
Nophar, Y. et al. J. Immunol. (1988) 140 (10):3456-3460.

[3] = system: mortality after irradiation; assay: Radioprotective effects in gamma-irradiated mice; format: in vivo, BALB/c mice; conditions: 750 rads, three administrations
Method: Groups of female BALB/c mice, 8 weeks old, 5-10 mice per group, were injected subcutaneously with either saline (0.1 ml, control), H-9392 (30 ng/mouse), or glucosamine (10,000 ng/mouse) 1 day before irradiation, and weekly thereafter until termination of the experiment on day 30. All the mice were irradiated to a dose of 700 rads using a ^60Co gamma radiation source.
The mortality within the different groups of mice was then scored over a 30 day period. […] The group of mice which had been injected with glucosamine also fared better than the control group, showing a 20% mortality rate in the same period.
In a separate experiment, groups of BALB/c mice (5 mice to a group) were likewise exposed to 750 rads of gamma-rays, except that these groups of mice were treated with test substances (saline at 0.1 ml per mouse; H-9392 at 0.3, 3, 30 and 300 ng/mouse; and glucosamine at 1, 10 and 100 μg/mouse) on the day before irradiation, on the sixth day after irradiation, and once again on the thirteenth day after irradiation only. All treatment ceased after the third and last administration.

SMILES: O=C(O)C1=C[C@H](O)[C@@H](OS(=O)(=O)O)[C@H](O[C@H]2[C@H](O)[C@@H](NS(=O)(=O)O)C(O)O[C@@H]2CO)O1 (stereo partly drawn) [H-9392, 2-O-Sulfate-4-deoxy-4-en-iduronic acid-(α-1,4)-2-deoxy-2-N-sulfateglucosamine]
- mice died by age 5 months (IDDM of NOD mice): none
- difference at 50% rejection relative to control (skin graft rejection): failed to produce a significant difference
- respiratory distress after secondary challenge [1]: mere tachypnea
- course of AA after treatment was ended (adjuvant arthritis; treatment from day 12, dexamethasone phosphate daily or weekly, disaccharide weekly): continued to exhibit improved AA scores
- effect on severity of AA (adjuvant arthritis; weekly or daily, beginning at day 0 or at day 12 (FIGS. 38D, 38E)): positive suppression of the severity of AA in all cases
- severity of the AA score at 30 days post-induction (adjuvant arthritis; weekly s.c. from day 12, dexamethasone phosphate 100 μg or disaccharide 120 ng per rat (FIG. 38G)): almost complete suppression
- Bioassay of TNF Activity [2]: Inconsistent
- mice died by the thirtieth day after irradiation ([3]; 30 ng/mouse, 5 mice to a group): one
- activity in suppressing mortality after irradiation ([3]; 300 ng H-9392, 1 μg glucosamine): moderate activity
